Converted amounts (≈) assume the structure as drawn.
Legend:
[1] = system: NIH/3T3 mouse embryonic fibroblast cells; assay: MTT cytotoxicity assay; format: cell-based; details: for IC50: Mus musculus, NIH3T3, 24 hours, read-out: IC50 values NIH/3T3 cell line
Experimental: (§1) In order to be used from this stock, the concentrations ranging from 0.12 to 500 µg/mL (with the highest DMSO ratio of 0.1%) were prepared.
NIH/3T3 mouse embryonic fibroblast cells (ATCC® CRL-1658™) were grown in DMEM medium supplemented with 10% fetal bovine serum, 1% penicillin/streptomycin, in an incubator with carbon dioxide, in a culture medium at 37°C at 95% relative humidity.
(§2) MTT protocol was applied to determine cell viability. […] At the end of the incubation period, 20 µL of MTT dye (5 mg/mL) was added into each well, and the cells were incubated for an additional 4 hours at 37°C. After this process, MTT dye was removed from the cells, 200 µL of DMSO was added to each well and left to incubate for 10 minutes. Color change was detected at 540 nm in the ELx808-IU Bio-Tek plate reader. Inhibition% values were determined for each concentration of compounds. Inhibitory concentration 50 (IC50) values of the compounds were calculated by drawing a dose-response curve with their concentrations against these values. All experiments were carried out in triplicate. The results were given as mean±standard deviation. Inhibition% = 100−[(ODtest compound−ODblank/ODsolvent control−ODblank)×100] [formula]

A549 cells = assay: FITC Annexin V/PI apoptosis detection by flow cytometry; format: cell-based, human; details: for apoptosis induction: flow cytometry, result in words
Experimental: The cells incubated with the compounds were centrifuged at 400 × g for 5 minutes in labeled tubes and washed twice with 1xPBS. Then, the cells were suspended in 1×Annexin-V binding solution at 1×10^6 cells/mL and 100 µL of this cell solution was taken and transferred to tubes. The cells were treated with 5 µL Annexin V FITC and 5 µL of propidium iodide (PI) dyes. Then, the cells were kept at room temperature in the dark for 15 minutes to allow the dye to bind. 400 µL of 1×Annexin-V binding cell solution was transferred to flow cytometry tubes and the amount of early and late apoptotic cells was determined relative to the positive control using the BD FACSAria flow cytometer FACSDiva version 6.1.1 software.

[2] = system: A549 human lung adenocarcinoma cells; assay: MTT cytotoxicity assay; format: cell-based; details: for IC50: Homo sapiens, A549, MTT, 24 hours, read-out: IC50 values A549 cell line; for SI values: SI= IC50 for NIH/3T3 cell line / IC50 for A549 cell line; for cytotoxic effects on A549 cell line: in the tested concentration range (0.12-500 µg/mL), result in words
Experimental: as §1
A549 human lung adenocarcinoma cells (ATCC® CCL-185™) were grown in RPMI 1640 medium supplemented with 10% fetal bovine serum, 1% penicillin/streptomycin, in an incubator with carbon dioxide, in a culture medium at 37°C at 95% relative humidity.
as §2
Selective index (SI) values were determined using the following formula. SI […] IC50 for NIH/3T3 cell line/IC50 for A549 cell line [formula]

Akt = Akt activity assay (Akt colorimetric in cell ELISA); format: cell-based, human; details: for Inhibition % / IC50 value (Akt inhibitory effects): 24 hours; for Akt inhibitory effects: result in words
Experimental: Briefly, the media was removed from the wells and 100 µL of 4% formaldehyde was added. The plate was incubated for 15 minutes in a fume hood. Formaldehyde was removed and the plate was washed twice with 1X […] solution (TBS) to 100 µL/well. 1X TBS was removed and 100 µL of 1X permeabilization buffer was added to each well and left at room temperature for 15 minutes. After removing the 1X permeabilization buffer, the wells were washed once with 100 µL of 1X TBS. 1X TBS was removed and 100 µL of the quenching solution was added to the wells and left at room temperature for 20 minutes. Then, this solution was removed. The plate was washed once with 1X TBS, 100 µL of blocking buffer was added to the wells and left at room temperature for 30 minutes. At the end of this period, the blocking buffer was removed and 50 µL of primary antibody was added to the wells. The plate was closed with a sealer and incubated overnight at 4°C. The primary antibody was removed and plate wells were washed three times with 100 µL of wash buffer. After removing the wash buffer, 100 µL of diluted horseradish peroxidase (HRP) conjugate was added to the wells. It was incubated for 30 minutes at room temperature. After removing this conjugate, 100 µL of 3,3',5,5'-tetramethylbenzidine (TMB) stop solution was added and absorbance was measured at 450 nm for 30 minutes. The experiment was carried out in triplicate. The values of the blank wells were subtracted from the values of the untreated control and treated cells. The Akt activity% was determined as the relative absorbance of treated versus untreated control cells.

Nn1c(CCc2cccnc2)nnc1SCC(=O)Nc1nc2ccccc2s1 [Compound 3b, 2-((4-Amino-5-(2-(pyridine-3-yl)ethyl)-4H-1,2,4-triazole-3-yl)thio)-N-(benzothiazole-2-yl)acetamide]
IC50 [1]: 23.3 ± 6.11 µg/mL (≈ 56.7 µM)
Early apoptotic cells % (A549 cells; at IC50 concentrations): 0.7%
Late apoptotic cells % (A549 cells; at IC50 concentrations): 3.0%
Necrosis % (A549 cells; at IC50 concentrations): 3.2%
Viable cells% (A549 cells; at IC50 concentrations): 93.1%
IC50 [2]: 0.68 ± 0.18 µg/mL (≈ 1.65 µM)
SI values [2]: 34.31
Inhibition % (Akt; 0.98 µg/mL): 14.58±4.29%
Inhibition % (Akt; 3.90 µg/mL): 72.89±5.45%
IC50 value (Akt inhibitory effects) (Akt): 2.23 ± 0.12 µg/mL (≈ 5.42 µM)

CCn1c(-c2nonc2N)nc2c(C#CC(C)(C)O)ncc(OC[C@H]3CCCNC3)c21 [GSK690693, reference compound]
IC50 [2]: 6.15 ± 0.49 µg/mL (≈ 14.5 µM)
Inhibition % (Akt; 1.50 µg/mL): 34.46±1.47%
Inhibition % (Akt; 3.075 µg/mL): 49.88±5.55%
Inhibition % (Akt; 6.15 µg/mL): 100%
IC50 value (Akt inhibitory effects) (Akt): 2.93 ± 0.23 µg/mL (≈ 6.89 µM)

FC(F)(F)c1ccc(C2=Nn3c(CCc4cccnc4)nnc3SC2)cc1 [Compound 2g, 3-(2-(Pyridine-3-yl)ethyl)-6-(4-(trifluoromethyl)phenyl)-7H-[1,2,4]triazolo[3,4-b][1,3,4]thiadiazine]
IC50 [1]: > 500 µg/mL
IC50 [2]: > 500 µg/mL
cytotoxic effects on A549 cell line [2]: did not show cytotoxic effects

O=[N+]([O-])c1ccc(C2=Nn3c(CCc4cccnc4)nnc3SC2)cc1 [Compound 2b, G-(4-Nitrophenyl)-3-(2-(pyridine-3-yl)ethyl)-7H-[1,2,4]triazolo[3,4-b] [1,3,4]thiadiazine]
IC50 [1]: > 500 µg/mL
Early apoptotic cells % (A549 cells; at IC50 concentrations): 2.4%
Late apoptotic cells % (A549 cells; at IC50 concentrations): 2.4%
Necrosis % (A549 cells; at IC50 concentrations): 2.5%
Viable cells% (A549 cells; at IC50 concentrations): 94.6%
IC50 [2]: 8.13 ± 0.81 µg/mL (≈ 22.2 µM)
SI values [2]: >61.50
Inhibition % (Akt; 4.07 µg/mL): 34.75±2.25%
Inhibition % (Akt; 8.13 µg/mL): 33.16±14.16%
Akt inhibitory effects (Akt): did not show significant Akt inhibitory effects

Brc1ccc(C2=Nn3c(CCc4cccnc4)nnc3SC2)cc1 [Compound 2e, G-(4-Bromophenyl)-3-(2-(pyridine-3-yl)ethyl)-7H-[1,2,4]triazolo[3,4-b][1,3,4]thiadiazine]
IC50 [1]: > 500 µg/mL
IC50 [2]: > 500 µg/mL
cytotoxic effects on A549 cell line [2]: did not show cytotoxic effects

Nn1c(CCc2cccnc2)nnc1SCC(=O)Nc1nc2ccc(F)cc2s1 [Compound 3c, 2-((4-Amino-5-(2-(pyridine-3-yl)ethyl)-4H-1,2,4-triazole-3-yl)thio)-N-(6-fluorobenzothiazole-2-yl)acetamide]
IC50 [1]: 170 ± 17.3 µg/mL (≈ 396 µM)
Early apoptotic cells % (A549 cells; at IC50 concentrations): 0.5%
Late apoptotic cells % (A549 cells; at IC50 concentrations): 3.7%
Necrosis % (A549 cells; at IC50 concentrations): 4.0%
Viable cells% (A549 cells; at IC50 concentrations): 91.8%
IC50 [2]: 0.27 ± 0.02 µg/mL (≈ 0.629 µM)
SI values [2]: 629.63
Inhibition % (Akt; 0.07 µg/mL): 15.28±5.56%
Inhibition % (Akt; 0.14 µg/mL): 36.64±13.39%
Inhibition % (Akt; 0.27 µg/mL): 39.84±6.49%
Akt inhibitory effects (Akt): did not show significant Akt inhibitory effects

c1ccc(C2=Nn3c(CCc4cccnc4)nnc3SC2)cc1 [Compound 2a, 6-Phenyl-3-(2-(pyridine-3-yl)ethyl)-7H-[1,2,4]triazolo[3,4-b][1,3,4]thiadiazine]
IC50 [1]: > 500 µg/mL
Early apoptotic cells % (A549 cells; at IC50 concentrations): 1.7%
Late apoptotic cells % (A549 cells; at IC50 concentrations): 2.7%
Necrosis % (A549 cells; at IC50 concentrations): 0.7%
Viable cells% (A549 cells; at IC50 concentrations): 95.0%
IC50 [2]: 7.23 ± 1.62 µg/mL (≈ 22.5 µM)
SI values [2]: >69.16
Inhibition % (Akt; 1.81 µg/mL): 8.75±2.77%
Inhibition % (Akt; 3.62 µg/mL): 7.69±2.91%
Inhibition % (Akt; 7.23 µg/mL): 35.45±5.82%
Akt inhibitory effects (Akt): did not show significant Akt inhibitory effects

Clc1ccc(C2=Nn3c(CCc4cccnc4)nnc3SC2)cc1 [Compound 2d, 6-(4-chlorophenyl)-3-(2-(pyridine-3-yl)ethyl)-7H-[1,2,4]triazolo[3,4-b][1,3,4]thiadiazine]
IC50 [1]: > 500 µg/mL
Early apoptotic cells % (A549 cells; at IC50 concentrations): 2.4%
Late apoptotic cells % (A549 cells; at IC50 concentrations): 3.8%
Necrosis % (A549 cells; at IC50 concentrations): 1.3%
Viable cells% (A549 cells; at IC50 concentrations): 92.5%
apoptosis induction (A549 cells): induce apoptosis
IC50 [2]: 15.8 ± 0.35 µg/mL (≈ 44.3 µM)
SI values [2]: >31.75
Inhibition % (Akt; 3.94 µg/mL): 80.33±19.71%
Inhibition % (Akt; 7.88 µg/mL): 99.07±1.86%
Inhibition % (Akt; 15.75 µg/mL): 90.41±7.17%
IC50 value (Akt inhibitory effects) (Akt): 0.80 ± 0.10 µg/mL (≈ 2.25 µM)

Cc1ccc(C2=Nn3c(CCc4cccnc4)nnc3SC2)cc1 [Compound 2h, 3-(2-(Pyridine-3-yl)ethyl)-6-(p-tolyl)-7H-[1,2,4]triazolo[3,4-b][1,3,4]thiadiazine]
IC50 [1]: > 500 µg/mL
IC50 [2]: 41.3 ± 0.58 µg/mL (≈ 123 µM)
SI values [2]: >12.10

c1cncc(CCc2nnc3n2N=C(c2ccc4ccccc4c2)CS3)c1 [Compound 2j, 6-(Naphthalene-2-yl)-3-(2-(pyridine-3-yl)ethyl)-7H-[1,2,4]triazolo[3,4-b][1,3,4] thiadiazine]
IC50 [1]: 6.66 ± 1.04 µg/mL (≈ 17.9 µM)
Early apoptotic cells % (A549 cells; at IC50 concentrations): 1.0%
Late apoptotic cells % (A549 cells; at IC50 concentrations): 3.6%
Necrosis % (A549 cells; at IC50 concentrations): 5.0%
Viable cells% (A549 cells; at IC50 concentrations): 90.3%
IC50 [2]: 4 µg/mL (≈ 10.8 µM)
SI values [2]: 1.67
Inhibition % (Akt; 2.0 µg/mL): 17.80±2.08%
Inhibition % (Akt; 4.0 µg/mL): 48.23±7.29%
Akt inhibitory effects (Akt): did not show significant Akt inhibitory effects

Nn1c(CCc2cccnc2)nnc1SCC(=O)Nc1nc2ccc(Cl)cc2s1 [Compound 3d, 2-((4-Amino-5-(2-(pyridine-3-yl)ethyl)-4H-1,2,4-triazole-3-yl)thio)-N-(6-chlorobenzothiazole-2-yl)acetamide]
IC50 [1]: 4.9 ± 0.36 µg/mL (≈ 11 µM)
Early apoptotic cells % (A549 cells; at IC50 concentrations): 1.8%
Late apoptotic cells % (A549 cells; at IC50 concentrations): 6.3%
Necrosis % (A549 cells; at IC50 concentrations): 4.8%
Viable cells% (A549 cells; at IC50 concentrations): 87.2%
apoptotic activity (A549 cells; at IC50 concentrations, early plus late apoptotic cells): 8.1%
apoptosis induction (A549 cells): induce apoptosis
IC50 [2]: 0.34 ± 0.02 µg/mL (≈ 0.762 µM)
SI values [2]: 14.41
Inhibition % (Akt; 0.98 µg/mL): 80.23±7.70%
Inhibition % (Akt; 1.95 µg/mL): 76.94±10.75%
Inhibition % (Akt; 3.90 µg/mL): 100.00%
IC50 value (Akt inhibitory effects) (Akt): 0.19 ± 0.05 µg/mL (≈ 0.426 µM)

N#Cc1ccc(C2=Nn3c(CCc4cccnc4)nnc3SC2)cc1 [Compound 2f, G-(4-Cyanophenyl)-3-(2-(pyridine-3-yl)ethyl)-7H-[1,2,4]triazolo[3,4-b][1,3,4]thiadiazine]
IC50 [1]: > 500 µg/mL
IC50 [2]: > 500 µg/mL
cytotoxic effects on A549 cell line [2]: did not show cytotoxic effects

COc1ccc(C2=Nn3c(CCc4cccnc4)nnc3SC2)cc1 [Compound 2i, G-(4-Methoxyphenyl)-3-(2-(pyridine-3-yl)ethyl)-7H-[1,2,4]triazolo[3,4-b][1,3,4] thiadiazine]
IC50 values NIH/3T3 cell line ([1]; 24 hours): <3.90 µg/mL
IC50 [1]: < 3.9 µg/mL
IC50 [2]: 13.7 ± 2.52 µg/mL (≈ 38.9 µM)

Nn1c(CCc2cccnc2)nnc1SCC(=O)Nc1nc2ccc(Br)cc2s1 [Compound 3e, 2-((4-Amino-5-(2-(pyridine-3-yl)ethyl)-4H-1,2,4-triazole-3-yl)thio)-N-(6-bromobenzothiazole-2-yl)acetamide]
IC50 [1]: > 500 µg/mL
IC50 [2]: 362 ± 12.6 µg/mL (≈ 737 µM)
SI values [2]: >1.38
